Columns and labels:
Assay in all cases: HMF sulfoconjugation assay
Type in all cases: biochemical
mSult2a2 = target: T1, mSult2a2 (Mus musculus, UniProt P50236)
T1 construct: made in house; host or cells: Salmonella typhimurium TA1538 (cytosolic fraction, enzyme not purified)
T1 sequence (P50236 1-285): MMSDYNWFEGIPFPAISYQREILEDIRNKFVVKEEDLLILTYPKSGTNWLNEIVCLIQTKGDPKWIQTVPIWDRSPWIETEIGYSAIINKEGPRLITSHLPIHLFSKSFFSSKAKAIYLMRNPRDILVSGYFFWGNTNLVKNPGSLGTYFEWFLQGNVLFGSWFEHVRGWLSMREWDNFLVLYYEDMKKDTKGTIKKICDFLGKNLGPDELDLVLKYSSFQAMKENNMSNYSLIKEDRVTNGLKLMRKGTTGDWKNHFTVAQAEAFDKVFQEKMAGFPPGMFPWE
Method in brief: (§1)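 Read-out: SMF by negative-ion UPLC-MS/MS (m/z 204.9 → 96.0 and → 81.0), external calibration. Reactions used bacterial cytosol with one expressed SULT, HMF at several concentrations, 50 µM PAPS, 37 °C, 30 min, under linear protein and time conditions.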

rSult1a1 = target: T2, rSult1a1 (Rattus norvegicus, UniProt P17988)
T2 construct: made in house; host or cells: Salmonella typhimurium TA1538 (cytosolic fraction, enzyme not purified)
Method in brief: as §1

hSULT2B1a = target: T3, hSULT2B1a (Homo sapiens, UniProt O00204)
T3 construct: made in house; host or cells: Salmonella typhimurium TA1538 (cytosolic fraction, not purified)
T3 sequence (O00204 1-350 isoform O00204-2): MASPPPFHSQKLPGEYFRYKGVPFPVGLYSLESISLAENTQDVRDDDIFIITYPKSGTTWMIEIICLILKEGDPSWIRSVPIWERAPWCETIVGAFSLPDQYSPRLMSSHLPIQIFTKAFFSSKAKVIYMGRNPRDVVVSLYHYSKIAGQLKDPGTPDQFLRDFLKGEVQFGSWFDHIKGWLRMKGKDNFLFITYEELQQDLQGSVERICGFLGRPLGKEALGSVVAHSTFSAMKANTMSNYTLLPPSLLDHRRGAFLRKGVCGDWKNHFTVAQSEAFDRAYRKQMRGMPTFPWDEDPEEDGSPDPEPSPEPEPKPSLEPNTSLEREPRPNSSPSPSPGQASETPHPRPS
Method in brief: as §1

hSULT2A1 = target: T4, hSULT2A1 (Homo sapiens, UniProt Q06520)
T4 construct: made in house; host or cells: Salmonella typhimurium TA1538 (cytosolic fraction, not purified)
T4 sequence (Q06520 1-285): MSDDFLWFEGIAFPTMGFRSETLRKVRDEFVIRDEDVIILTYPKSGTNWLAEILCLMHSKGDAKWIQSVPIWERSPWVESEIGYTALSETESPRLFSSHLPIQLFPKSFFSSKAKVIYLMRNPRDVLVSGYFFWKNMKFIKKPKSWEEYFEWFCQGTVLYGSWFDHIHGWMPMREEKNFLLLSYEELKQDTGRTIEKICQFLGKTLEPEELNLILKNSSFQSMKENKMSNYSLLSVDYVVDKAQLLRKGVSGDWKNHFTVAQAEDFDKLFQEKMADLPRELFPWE
Method in brief: as §1

T2 sequence (P17988 whole entry): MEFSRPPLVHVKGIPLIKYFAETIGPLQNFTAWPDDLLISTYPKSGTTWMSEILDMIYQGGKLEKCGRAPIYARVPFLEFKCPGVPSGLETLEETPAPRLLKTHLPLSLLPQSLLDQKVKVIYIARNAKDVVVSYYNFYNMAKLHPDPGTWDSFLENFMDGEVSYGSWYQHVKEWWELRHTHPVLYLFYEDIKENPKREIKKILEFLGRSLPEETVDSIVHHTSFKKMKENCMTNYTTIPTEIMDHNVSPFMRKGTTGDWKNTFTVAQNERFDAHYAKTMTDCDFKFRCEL

O=Cc1ccc(CO)o1 [HMF, 5-Hydroxymethylfurfural]
Rate of sulfoconjugation (mSult2a2; 0.1 mM HMF): <0.5 pmol/mg/min | Rate of sulfoconjugation (mSult2a2; 1 mM HMF): 4.4 ± 0.8 pmol/mg/min | Rate of sulfoconjugation (mSult2a2; 10 mM HMF): 32.4 ± 3.2 pmol/mg/min | Rate of sulfoconjugation (mSult2a2; 100 mM HMF): 77.5 ± 11.7 pmol/mg/min | Rate of sulfoconjugation (rSult1a1; 0.1 mM HMF): <0.5 pmol/mg/min | Rate of sulfoconjugation (rSult1a1; 1 mM HMF): 6.5 ± 2.1 pmol/mg/min | Rate of sulfoconjugation (rSult1a1; 10 mM HMF): 43.6 ± 13.7 pmol/mg/min | Rate of sulfoconjugation (rSult1a1; 100 mM HMF): 36.1 ± 16.8 pmol/mg/min | K M (rSult1a1; HMF sulfoconjugation, Michaelis-Menten fit): 4.9 ± 0.7 mM | Rate of sulfoconjugation (hSULT2B1a; 0.1 mM HMF): <0.5 pmol/mg/min | Rate of sulfoconjugation (hSULT2B1a; 1 mM HMF): <0.5 pmol/mg/min | Rate of sulfoconjugation (hSULT2B1a; 10 mM HMF): <0.5 pmol/mg/min | Rate of sulfoconjugation (hSULT2B1a; 100 mM HMF): <0.5 pmol/mg/min | Rate of sulfoconjugation (hSULT2A1; 0.1 mM HMF): <0.5 pmol/mg/min | Rate of sulfoconjugation (hSULT2A1; 1 mM HMF): 2.4 ± 0.6 pmol/mg/min | Rate of sulfoconjugation (hSULT2A1; 10 mM HMF): 31.1 ± 5.4 pmol/mg/min | Rate of sulfoconjugation (hSULT2A1; 100 mM HMF): 201 ± 39 pmol/mg/min
